One may read the IC50 as the concentration at which inhibition is half-maximal. One may read the MTD as the largest dose that counted as tolerated.

Values after ≈ are worked out from the molar mass of the structure shown. Like-named read-outs stand apart in the source and are kept apart here.

For one series, the target named is B. anthracis NADs (Bacillus anthracis, UniProt Q81RP3). The series is classed as biochemical.
The subject of series [1] is Bacillus anthracis Sterne. Put plainly: microbe, parasite or virus in culture. The series is classed as cell-based.
The subject of the next series is B. anthracis. The experiment in a line: microbe, parasite or virus in culture. In kind it is cell-based. The settings on record: Bacillus anthracis, read-out: MIC (μg/mL) B. anthracis.
In another series the test system is S. aureus. The experiment in a line: microbe, parasite or virus in culture. In kind it is cell-based. The settings on record: Staphylococcus aureus, read-out: MIC (μg/mL) S. aureus.
A further series has as its system E. faecalis. The experiment in a line: microbe, parasite or virus in culture. The series is classed as cell-based. Conditions: Enterococcus faecalis, read-out: MIC (μg/mL) E. faecalis.
The next series has as its system B. cereus. The experiment in a line: microbe, parasite or virus in culture. The settings on record: Bacillus cereus, read-out: MIC (μg/mL) B. cereus. The series is classed as cell-based.
Another series relates to S. aureus MRSA. The experiment in a line: microbe, parasite or virus in culture. In kind it is cell-based. Conditions: Staphylococcus aureus, read-out: MIC (μg/mL) S. aureus MRSA.
A further series relates to E. faecium VRE. The experiment in a line: microbe, parasite or virus in culture. In kind it is cell-based. Conditions: Enterococcus faecium, read-out: MIC (μg/mL) E. faecium VRE.
The test system of a further series is S. pneumoniae. The experiment in a line: microbe, parasite or virus in culture. The series is classed as cell-based. The settings on record: Streptococcus pneumoniae, read-out: MIC (μg/mL) S. pneumoniae.
A short description of series [2]: In vivo toxicity, maximum tolerated dose. Conditions: female, BALB/c, mouse, intraperitoneal.
The nature of series [3]: Pharmacokinetics, plasma concentration after intraperitoneal injection.
The next series deals with hNaMNAT-1 (Homo sapiens, UniProt Q9HAN9). Put plainly: Human NAMNAT inhibition in vitro. In kind it is biochemical.
Chain of hNaMNAT-1 (Q9HAN9 whole entry): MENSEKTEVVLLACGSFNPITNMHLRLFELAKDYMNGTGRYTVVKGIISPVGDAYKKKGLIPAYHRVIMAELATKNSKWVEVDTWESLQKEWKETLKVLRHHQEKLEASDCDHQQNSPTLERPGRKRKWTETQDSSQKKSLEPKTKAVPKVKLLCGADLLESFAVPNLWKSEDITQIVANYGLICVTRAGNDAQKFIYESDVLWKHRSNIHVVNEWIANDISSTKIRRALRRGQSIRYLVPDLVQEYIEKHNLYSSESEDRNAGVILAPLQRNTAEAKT
The next series has as its system HCC1937. The experiment in a line: In vitro human breast cancer cell growth inhibition. In kind it is cell-based. The settings on record: HCC1937 cells, read-out: In Vitro Human Breast Cancer Inhibition (IC50, μM) HCC1937.
The next series deals with MDA-MB-436. Described as above. In kind it is cell-based. Conditions: MDA-MB-436 cells, read-out: In Vitro Human Breast Cancer Inhibition (IC50, μM) MDA-MB-436.
A further series has as its system SUM159. The series is described as above. The settings on record: SUM159 cells, read-out: In Vitro Human Breast Cancer Inhibition (IC50, μM) SUM159. The series is classed as cell-based.
The next series concerns IMR90. Put plainly: In vitro inhibition of normal human cells. The series is classed as cell-based. Conditions: IMR-90.
The next series concerns HEK293. The experiment in a line: In vitro inhibition of normal human cells. In kind it is cell-based.
For the next series, the system named is BEAS-23. The experiment in a line: In vitro inhibition of normal human cells. Conditions: read-out: In Vitro Inhibition Normal Human Cells (IC50, μM) BEAS-23. In kind it is cell-based.
In another series the test system is Hep-G2. Put plainly: In vitro inhibition of normal human cells. The settings on record: HepG2. In kind it is cell-based.

Chain of B. anthracis NADs (Q81RP3 whole entry, looked up): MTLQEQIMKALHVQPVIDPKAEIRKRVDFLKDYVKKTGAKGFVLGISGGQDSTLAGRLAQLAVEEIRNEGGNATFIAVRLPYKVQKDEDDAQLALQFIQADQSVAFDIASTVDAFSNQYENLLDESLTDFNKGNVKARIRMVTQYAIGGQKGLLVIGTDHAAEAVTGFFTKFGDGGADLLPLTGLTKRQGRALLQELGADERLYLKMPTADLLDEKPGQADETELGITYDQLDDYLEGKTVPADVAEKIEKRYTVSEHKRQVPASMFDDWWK

Turning to `O=C(Nc1ccc([N+](=O)[O-])cc1)Nc1ccc(S(=O)(=O)Nc2ccc(Cl)c(Cl)c2)cc1` [Compound 5824], the “activity against NADs (in words)” value on B. anthracis NADs was “good activities”. Further, the IC50 at B. anthracis NADs (read-out: IC50) and at B. anthracis NADs (read-out: NADs IC50) was 10 µM in each case. Moreover, in series [1], the “activity against B. anthracis (in words)” value is reported as “good activities”. Moreover, the MIC is 1.9 µM (≈ 0.915 µg/mL) in [1] (Bacillus anthracis, read-out: B.a. MIC (μM)); 1.2 µg/mL (≈ 2.49 µM) in the series with B. anthracis; 10.8 µg/mL (≈ 22.4 µM) in the series with S. aureus; 14 µg/mL (≈ 29.1 µM) in the series with E. faecalis; 0.78 µg/mL (≈ 1.62 µM) in the series with B. cereus; 5.5 µg/mL (≈ 11.4 µM) in the series with S. aureus MRSA. Also, the MIC came out at 10.8 µg/mL (≈ 22.4 µM) in the series with E. faecium VRE and 3.6 µg/mL (≈ 7.48 µM) in the series with S. pneumoniae. Moreover, the MTD in series [2] was 25 mg/kg. For the same compound, the “time to highest plasma drug concentration” value is “about 12 hours” in [3] (25 mg/kg (Bid), second dose 8 hr after first, time after first dose); 2 h in series [3] (25 mg/kg (QD), mouse plasma); 2 h in [3] (50 mg/kg (QD), mouse plasma).

For the compound `Nc1ccc(NS(=O)(=O)c2ccc(NC(=O)Nc3ccc(Cl)c(Cl)c3)cc2)cc1` [Compound 6010], the IC50 is above 600 µM at hNaMNAT-1; 20 µM in the series with HCC1937; 25 µM with MDA-MB-436; 10 µM with SUM159; above 200 µM in the series on IMR90; above 200 µM in the series with HEK293. The IC50 in the series on BEAS-23 and in the series on Hep-G2 was above 200 µM throughout.

As for `O=[N+]([O-])c1cc(S(=O)(=O)NCc2ccco2)ccc1NNC(=S)Nc1cccc(C(F)(F)F)c1` [Compound 6034], the IC50 at hNaMNAT-1 worked out at 28 µM; with HCC1937, 60 µM; in the series on MDA-MB-436, 70 µM; in the series on SUM159, 50 µM; in the series on IMR90 it was 148 µM; in the series on HEK293, 176 µM. Also, the values for the IC50 in the series on BEAS-23 and with Hep-G2 were 186 µM and 90 µM, respectively.

Consider `O=C(Nc1ccc(S(=O)(=O)Nc2ccc(Cl)c(Cl)c2)cc1)Nc1ccccc1O` [Compound 6399], for which the half-maximal inhibitory concentration (IC50) on hNaMNAT-1 came to 19 µM; in the series on HCC1937 it was 40 µM; in the series on IMR90 it was 181 µM; with HEK293, 163 µM; with BEAS-23 it was 93 µM; with Hep-G2 it was 84 µM.

Turning to `O=C(Nc1ccc(O)cc1)Nc1ccc(S(=O)(=O)Nc2ccc(Cl)c(Cl)c2)cc1` [Compound 6400], the IC50 was 13 µM against hNaMNAT-1; 95 µM with HCC1937; 95 µM in the series on MDA-MB-436; 50 µM in the series on SUM159; above 200 µM in the series on IMR90; above 200 µM in the series with HEK293. For the same compound, the half-maximal inhibitory concentration (IC50) was above 200 µM with BEAS-23 and 112 µM in the series on Hep-G2.
